“Also recorded” adds a separate entry of the source.
Tests used:
[1] = molecular target: T1, adenosine deaminase (ADA, Type V, EC 3.5.4.4) entrapped in monolithic silica column (Bos taurus, UniProt P56658); assay: ADA enzyme reactor/MS mixture screening (primary and secondary screen); assay type: biochemical, bovine; settings: each compound individually, 500 nM and 10 μM, 200 μM adenosine
T1 construct: Adenosine deaminase (ADA, Type V, from bovine intestine, EC 3.5.4.4); purchased Sigma-Aldrich (Oakville, Ontario, Canada) Type V (catalogue number not given); host or cells: bovine intestine (tissue-derived)
T1 sequence (P56658 1-363): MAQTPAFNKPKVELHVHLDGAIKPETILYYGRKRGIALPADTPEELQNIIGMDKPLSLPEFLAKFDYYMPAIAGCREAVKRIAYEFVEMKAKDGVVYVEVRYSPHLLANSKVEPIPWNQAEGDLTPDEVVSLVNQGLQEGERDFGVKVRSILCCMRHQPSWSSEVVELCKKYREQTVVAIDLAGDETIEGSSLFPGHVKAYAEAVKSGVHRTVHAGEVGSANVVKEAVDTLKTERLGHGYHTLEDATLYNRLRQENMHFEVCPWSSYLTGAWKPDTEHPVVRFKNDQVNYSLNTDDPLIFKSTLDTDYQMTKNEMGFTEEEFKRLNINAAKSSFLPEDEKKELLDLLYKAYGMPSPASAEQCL
Description: Columns were fabricated in a fashion similar to that described previously.^25 ADA was exhaustively dialyzed against a solution containing 5 mM Bis-Tris.HCl, pH 6.5, with 10% (v/v) glycerol to remove all traces of phosphate buffer and adjust the pH. 40 mL of the resultant 40 mM ADA solution was then mixed with 20 mL of a solution containing 0.5 mM Bis-Tris.HCl, pH 6.5 with 50% (v/v) glycerol. DGS based sols were prepared by sonicating DGS with water (1 g+1 mL) at 0° C. for 15 min to hydrolyze the monomer, followed by filtration through a 0.2 mm filter. 100 mL of the resulting sol was rapidly mixed with the 60 mL ADA solution prepared above, followed by the rapid addition of 40 mL of 40% (w/v) poly(ethylene glycol) in water. The sol solution was then injected into an 80 cm length of 250 mm i.d., 360 mm o.d., polyimide coated fused silica tubing that was previously cleaned using 1 M NaOH. The liquid sol must be completely mixed, injected and stationary within the capillary by the time phase separation occurs, ˜2 minutes after mixing. After gelation (˜3 min), capillaries were looped such that both ends could be submerged in 50 mM Bis-Tris.HCl pH 6.5 and secured for storage. Columns were aged for a minimum of 5 days to achieve a relatively stable internal structure. After aging, 10 cm column segments were cut from poured columns, as required. […]

[2] = molecular target: T1, adenosine deaminase (ADA, Type V, EC 3.5.4.4) entrapped in monolithic silica column; assay: ADA enzyme reactor/MS quantitative determination of IC50, KI and Km; assay type: biochemical, bovine; settings: for IC50: IC50 [EHNA]; for effect on ADA activity (substrate and product signals, P/S ratio): test compounds increased stepwise from 0 to 1000 nM, adenosine constant at 62.5 μM, 2 mM ammonium acetate
Excerpt: In an embodiment of the invention, if the P/S ratio is altered in favour of the substrate, then at least one of the one or more test compounds is an inhibitor of the protein. By altering the ratio of the flow between substrate and test compound channels, one can alter the compound concentrations and, thereby, obtain full inhibition curves. IC50 values are obtained by altering the flow in the substrate and substrate+inhibitor(s) channel in a stepwise fashion, thus allowing for variation of inhibitor concentration with constant substrate concentration. […] KI values are determined by extrapolation of IC50 values obtained at different substrate concentrations to the point of zero substrate concentration as per the equation: [formula] […] Note that for the enzyme reactor column, product concentration, rather than reaction rate, is monitored. Thus, the equation is valid only under conditions where the initial rate is proportional to product concentration. In the present system, it is assumed that this holds for conversion rates of 30% or less.
To assess the enzyme-reactor chromatography/tandem MS method for inhibitor screening, monolithic silica columns containing entrapped adenosine deaminase (ADA, EC 3.5.4.4) and Factor Xa were formed according to previously described methods.^25 ADA was used as the model enzyme owing to the relevance of this protein in immune disorders,^19 and because there are currently no high-throughput screening methods for this enzyme. An Eksigent nanoLC system was used to continuously infuse liquid through the column (10 μL/min total flowrate), with one channel containing adenosine (Pump A) and another containing adenosine plus 1 μM test compound(s) (Pump B), with all species present in 2 mM ammonium acetate buffer (FIG. 1, bottom).
Columns were fabricated in a fashion similar to that described previously.^25 ADA was exhaustively dialyzed against a solution containing 5 mM Bis-Tris.HCl, pH 6.5, with 10% (v/v) glycerol to remove all traces of phosphate buffer and adjust the pH. 40 mL of the resultant 40 mM ADA solution was then mixed with 20 mL of a solution containing 0.5 mM Bis-Tris.HCl, pH 6.5 with 50% (v/v) glycerol. DGS based sols were prepared by sonicating DGS with water (1 g+1 mL) at 0° C. for 15 min to hydrolyze the monomer, followed by filtration through a 0.2 mm filter. 100 mL of the resulting sol was rapidly mixed with the 60 mL ADA solution prepared above, followed by the rapid addition of 40 mL of 40% (w/v) poly(ethylene glycol) in water. The sol solution was then injected into an 80 cm length of 250 mm i.d., 360 mm o.d., polyimide coated fused silica tubing that was previously cleaned using 1 M NaOH. The liquid sol must be completely mixed, injected and stationary within the capillary by the time phase separation occurs, ˜2 minutes after mixing. After gelation (˜3 min), capillaries were looped such that both ends could be submerged in 50 mM Bis-Tris.HCl pH 6.5 and secured for storage. Columns were aged for a minimum of 5 days to achieve a relatively stable internal structure. After aging, 10 cm column segments were cut from poured columns, as required.
A 2 channel, Eksigent nanoLC pump was used for mobile phase delivery to a MDS Sciex Q-Trap Mass Spectrometer. Note that the Eksigent pump uses direct pneumatic pumping of mobile phase at μL/min rates, with no flow splitting. An Eksigent AS-1 48 vial autosampler was fitted with a 250 μL withdrawal syringe and a 150 μL loop of 250 μm i.d. fused silica tubing. Thus, only small volumes of inhibitor solutions (˜400 μL) are required for screening, although larger volumes can be loaded directly into the Eksigent pump reservoir (1-5 mL depending on configuration) for determination of IC50 values. […] Mobile phases were run directly into the MS system, without the introduction of an organic “make-up flow”. Mass spectrometer control and data acquisition was done using Analyst v.1.4 software.

[3] = molecular target: T2, adenosine deaminase (ADA) (Homo sapiens, UniProt P00813); settings: literature value; read-out: published KI value; cited from earlier work
T2 sequence (P00813 1-363): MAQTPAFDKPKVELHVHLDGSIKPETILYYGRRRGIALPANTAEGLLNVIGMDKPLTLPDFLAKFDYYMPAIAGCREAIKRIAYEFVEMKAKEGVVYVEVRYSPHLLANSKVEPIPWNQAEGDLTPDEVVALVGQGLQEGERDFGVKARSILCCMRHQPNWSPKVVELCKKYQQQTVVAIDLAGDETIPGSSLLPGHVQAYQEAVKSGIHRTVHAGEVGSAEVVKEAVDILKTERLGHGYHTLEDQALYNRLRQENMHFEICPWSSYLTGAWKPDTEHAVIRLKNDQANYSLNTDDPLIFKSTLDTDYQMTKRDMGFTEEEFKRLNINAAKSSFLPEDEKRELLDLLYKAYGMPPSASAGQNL

Ki [2] [nM] | IC50 ([2]; EHNA alone (closed circles, FIG. 8A)) [nM] | IC50 ([2]; EHNA in a mixture (open circles, FIG. 8A)) [nM] | Vmax ([2]; Michaelis-Menten analysis of inosine production rate (FIG. 6b)) [pmole/min/column] | SMILES | ADA inhibition in secondary screen (individual compounds of active mixture) [1] | effect on ADA activity (substrate and product signals, P/S ratio) [2] | Ki [3] [nM]
15.7 ± 3.5 | 29.4 | 29.7 |  | CCCCCCC(C(C)O)n1cnc2c(N)ncnc21 (stereo not drawn) [EHNA, erythro-9-(2-hydroxy-3-nonyl)adenine] | active, inhibitory compound; also recorded: inhibitor of ADA | concentration-dependent decrease in product and increase in substrate signals; also recorded: concentration-dependent decrease in ADA activity | 6.5
 |  |  | 734 | Nc1ncnc2c1ncn2[C@@H]1O[C@H](CO)[C@@H](O)[C@H]1O [adenosine] |  |  | 
 |  |  |  | Nc1nc2ncc(CNc3ccc(C(=O)N[C@@H](CCC(=O)O)C(=O)O)cc3)nc2c(=O)[nH]1 [folic acid] |  | no significant effect | 

Source: patent US20060226082A1, “Methods for substrate and modulator screening using enzyme-reactor chromatography/tandem mass spectrometry” (McMaster University, priority 2005, published 2006)
